The source made the active and inactive calls. No cut-off for these calls is given here.
Key:
[1] = biological target: T1, MAP kinase p38 (Homo sapiens) (UniProt O15264+Q15759+Q16539+P53778); assay: Inhibition of p38 MAPK phosphorylation in human HepG2 cells at 25 uM by Western blot analysis; assay type: cell-based
HepG2 [2] = assay: Effect on nonphosphorylated p38 MAPK level in human HepG2 cells at 25 uM by Western blot analysis; assay type: ADME, cell-based; settings: hepg2, 25 µM
HepG2 [3] = assay: Induction of apoptosis in human HepG2 cells assessed as activation of caspase-3/8/9 at 25 uM after 24 hrs by Western blotting; assay type: functional, cell-based
HepG2 [4] = assay: Effect on nonphosphorylated p38 MAPK level in human doxorubicin-resistant HepG2 cells expressing p-gp at 25 uM by Western blot analysis; assay type: ADME, cell-based; settings: hepg2, 25 µM
HepG2 [5] = assay: Effect on nonphosphorylated SAPK/JNK level in human HepG2 cells at 25 uM by Western blot analysis; assay type: ADME, cell-based; settings: hepg2, 25 µM
HepG2 [6] = assay: Effect on nonphosphorylated ERK1/ERK2 level in human doxorubicin-resistant HepG2 cells expressing p-gp at 25 uM by Western blot analysis; assay type: ADME, cell-based; settings: hepg2, 25 µM
HepG2 [7] = assay: Increase of SAPK/JNK phosphorylation in human HepG2 cells at 25 uM by Western blot analysis; assay type: cell-based
HepG2 [8] = assay: Effect on nonphosphorylated SAPK/JNK level in human doxorubicin-resistant HepG2 cells expressing p-gp at 25 uM by Western blot analysis; assay type: ADME, cell-based; settings: hepg2, 25 µM
[9] = biological target: T2, Mitogen-activated protein kinase; ERK1/ERK2 (Homo sapiens) (UniProt P27361+P28482); assay: Inhibition of ERK1/2 phosphorylation in human HepG2 cells at 25 uM by Western blot analysis; assay type: cell-based
HepG2 [10] = assay: Effect on nonphosphorylated ERK1/ERK2 level in human HepG2 cells at 25 uM by Western blot analysis; assay type: ADME, cell-based; settings: hepg2, 25 µM
HepG2 [11] = assay: Induction of apoptosis in human doxorubicin-resistant HepG2 cells expressing p-gp assessed as activation of caspase-3/8/9 at 25 uM after 24 hrs by Western blotting; assay type: functional, cell-based
HepG2 [12] = assay: Induction of apoptosis in human HepG2 cells assessed as increase in PARP cleavage at 25 uM after 24 hrs by Western blotting; assay type: functional, cell-based
HepG2 [13] = assay: Increase of SAPK/JNK phosphorylation in human doxorubicin-resistant HepG2 cells expressing p-gp at 25 uM by Western blot analysis; assay type: cell-based
[14] = biological target: T1, MAP kinase p38 (Homo sapiens); assay: Inhibition of p38 MAPK phosphorylation in human doxorubicin-resistant HepG2 cells expressing p-gp at 25 uM by Western blot analysis; assay type: cell-based
HepG2 [15] = assay: Induction of apoptosis in human doxorubicin-resistant HepG2 cells expressing p-gp assessed as increase in PARP cleavage at 25 uM after 24 hrs by Western blotting; assay type: functional, cell-based
[16] = biological target: T2, Mitogen-activated protein kinase; ERK1/ERK2 (Homo sapiens); assay: Inhibition of ERK1/2 phosphorylation in human doxorubicin-resistant HepG2 cells expressing p-gp at 25 uM by Western blot analysis; assay type: cell-based

T2 sequence (P27361 whole entry, looked up): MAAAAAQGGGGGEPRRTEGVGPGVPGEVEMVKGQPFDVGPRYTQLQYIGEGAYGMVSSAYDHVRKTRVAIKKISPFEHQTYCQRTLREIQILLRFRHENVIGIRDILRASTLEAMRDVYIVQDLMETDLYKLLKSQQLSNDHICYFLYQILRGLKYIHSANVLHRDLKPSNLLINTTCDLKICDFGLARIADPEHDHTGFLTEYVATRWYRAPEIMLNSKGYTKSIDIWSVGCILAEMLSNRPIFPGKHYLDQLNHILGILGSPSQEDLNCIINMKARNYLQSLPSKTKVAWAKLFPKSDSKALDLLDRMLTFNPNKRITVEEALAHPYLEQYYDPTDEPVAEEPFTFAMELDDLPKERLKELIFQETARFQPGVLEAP
T2 sequence (P28482 whole entry, looked up): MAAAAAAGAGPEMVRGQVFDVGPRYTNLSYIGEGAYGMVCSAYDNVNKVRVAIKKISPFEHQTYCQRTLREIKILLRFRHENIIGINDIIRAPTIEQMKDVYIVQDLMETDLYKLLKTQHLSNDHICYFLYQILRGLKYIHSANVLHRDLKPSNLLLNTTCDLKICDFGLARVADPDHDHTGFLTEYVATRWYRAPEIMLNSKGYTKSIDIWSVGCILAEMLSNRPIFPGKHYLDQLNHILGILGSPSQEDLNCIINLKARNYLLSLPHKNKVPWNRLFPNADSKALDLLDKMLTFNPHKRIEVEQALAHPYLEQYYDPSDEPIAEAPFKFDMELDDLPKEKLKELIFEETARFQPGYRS

## Cc1cccc2c3c(ccc12)C1=C(C(=O)C3=O)[C@@H](C)CO1 [DIHYDROTANSHINONE I]
[1]
  inhibition: Active
HepG2 [2]
  Activity: Non-toxic
HepG2 [3]
  Activity: Active
HepG2 [4]
  Activity: Non-toxic
HepG2 [5]
  Activity: Non-toxic
HepG2 [6]
  Activity: Non-toxic
HepG2 [7]
  Activity: Active
HepG2 [8]
  Activity: Non-toxic
[9]
  inhibition: inactive
HepG2 [10]
  Activity: Non-toxic
HepG2 [11]
  Activity: Active
HepG2 [12]
  Activity: Active
HepG2 [13]
  Activity: inactive
[14]
  inhibition: Active
HepG2 [15]
  Activity: Active
[16]
  inhibition: Active

Source: ChEMBL document CHEMBL3608289, “Miltirone Is a Dual Inhibitor of P-Glycoprotein and Cell Growth in Doxorubicin-Resistant HepG2 Cells” (J Nat Prod, 2015)
